{
  "source": "patent US20240197869A1",
  "about": "“HYPERACTIVATORS OF MAMMALIAN DENDRITIC CELLS” (Corner Therapeutics, Inc., priority 2021, published 2024)",
  "key": {"[1]": {"experiment": "Particle size by Dynamic Light Scattering (DLS)", "format": "physicochemical", "details": "particles of 22:0 Lyso PC and KP407 by solvent evaporation, after 0.45 um filtration", "from_the_text": "Particle size was quantified by Dynamic Light Scattering (DLS)."}, "[2]": {"system": "human moDC", "experiment": "Viability of human moDC with surfactant formulations of 22:0 Lyso PC", "format": "cell-based", "details": "solvent evaporation method with KP407, filtered, target 82.5 uM + R848", "protocol": "(§1) Formulation of 22:0 Lyso PC with poloxamers. […] 22:0 Lyso PC was resuspended in the surfactant solution and agitated at 4° C. for an hour. Solutions were then brought to room temperature to form micelles. Using 10× concentrated PBS, salts were added to the solution to stabilize molecular interactions and provide physiologically relevant osmolarity. Lipid solutions were either left unfiltered or filtered through a pore size of 0.45 um to remove insoluble lipid flakes. Lipids were further diluted and added onto human moDC cell cultures along with 1 ug/mL R848. Targeted lipid concentrations were based on the scenario where the lipid is fully bio-available prior to filtration. However, filtration of insoluble lipid reduces the bio-available supply of lipid. Thus, IL-1beta as a measure of hyperactivity can be used as an indicator of 22:0 Lyso PC incorporation into micelles and thus into solution. One day after hyperactivation, cell culture supernatants are collected to measure cytokine secretion, and cells are used to measure viability via Cell Titer-Glo.\nSalts are added to the solution to stabilize the molecular interactions and bring the solution to a physiologically relevant osmolarity. The solutions are then either left unfiltered or filtered through a pore size of 0.45 um to remove insoluble lipid flakes or particle aggregates. […]"}, "[3]": {"system": "non-human primate PBMCs", "experiment": "Cytokine secretion by non-human primate PBMCs (LegendPlex)", "format": "cell-based, cynomolgus macaques", "protocol": "Non-human primate PBMC hyperactivation. Whole blood from cynomolgus macaques was diluted with an equal volume of PBS. A solution of 90% Ficoll-Paque PLUS and 10% RPMI was made, and diluted whole blood was overlayed on top of the diluted Ficoll. Cells were centrifuged at 1000 rcf for 30 minutes at room temperature with no brakes. The buffy coat layer was collected and washed twice with PBS. If red blood cell contamination was present, cells were incubated in ACK lysis buffer for 2 minutes before being washed with PBS to remove lysed red blood cells.\nIsolated PBMC were plated at 1×10^6 cells/well and cultured with or without hyperactivating stimuli. After 2 days incubation, cells were assessed for viability, and cell culture supernatant was used to measure cytokine output. Commercially available kits such as Biolegend LegendPlex kits were used as directed by manufacturer's protocol to quantify cytokines of interest.\nPBMC were obtained from 13 cynomolgus macaques. Each activation condition was tested in triplicate, and the mean value of the triplicate is graphed for the animal sample. Repeated measures one-way ANOVA was used to test for statistical significance followed by Dunnett's multiple comparisons test."}, "[4]": {"system": "human monocyte-derived dendritic cells (moDCs)", "experiment": "PAMP screen: IL-1β secretion by human moDCs with PRR agonist and 22:0 Lyso PC", "format": "cell-based", "details": "No PAMP, 20 μM 22:0 Lyso PC alone, human moDCs", "protocol": "Pathogen-Associated Molecular Pattern (PAMP) Screen. Innate immune signaling pathway agonists were purchased from Invivogen. Lyophilized stocks were reconstituted and stored according to manufacturer's instructions and at recommended concentrations. […] Innate immune signaling agonists were diluted in R10 media to the manufacturer's recommended working concentration and then added onto cells. 22:0 Lyso PC was then reconstituted from a lyophilized stock in R10 and then further diluted. The lipid was added onto cells at a final concentration of 20 μM. Cells were incubated for 2 days, then cultures were collected for endpoint analyses.\nQuantification of IL-1beta Secretion. IL-1beta secretion was assessed using the ELISA MAX Deluxe Set Human IL-1beta kit (Biolegend). ELISAs were performed according to manufacturer's instructions with the following modifications: i) total sample volume for incubation was reduced from […] the top standard was prepared at […], with two-fold dilutions to […]; and iii) sample incubation was completed overnight at 4 C on an orbital shaker. […] To determine IL-1beta concentration in supernatants, sample IL-1beta concentrations were interpolated using a standard curve via 4PL analysis on GraphPad Prism 9 (GraphPad Software). The interpolated results of samples were then adjusted for any dilutions made to the supernatant."}, "[5]": {"system": "human moDC", "experiment": "IL-1β secretion by human moDC with surfactant formulations of 22:0 Lyso PC", "format": "cell-based", "protocol": "as §1\nSalts are added to the solution to stabilize the molecular interactions and bring the solution to a physiologically relevant osmolarity. The solutions are then either left unfiltered or filtered through a pore size of 0.45 um to remove insoluble lipid flakes or particle aggregates. Lipids are then added to human moDC cultures with 1 ug/mL R848. One day after hyperactivation, cell culture supernatants were collected to measure cytokine secretion, and cells were used to measure cell viability.\nData from these studies in poloxamer formulation are shown from one human moDC donor sample. Individual data points represent the mean of triplicates."}, "[6]": {"system": "murine, FLT3L-differentiated DC", "experiment": "Antigen uptake and presentation assay", "format": "cell-based, mouse", "protocol": "Antigen uptake and presentation assay. To examine antigen uptake and the endocytic ability of BMDCs, pHrodo™ Red Dextran 10,000 MW was used (ThermoFisher). Briefly, FLT3L-derived BMDCs previously cultured with media alone, or treated for 24 hours with R848 alone or in combination with 22:0 Lyso PC, were incubated with pHrodo™ Red Dextran (40 ug/ml) for 45 minutes at 37° C., or at 4° C. (as a control for surface binding of the antigen). BMDCs were then washed and stained with Live/Dead Fixable Violet dye (ThermoFisher) to distinguish living cells from dead cells. Cells were then fixed with BD fixation solution and resuspended in MACS buffer. Red (APC) fluorescence of live cells was measured by flow cytometry. Fluorescence values of BMDCs incubated at 37° C. were reported as Mean Fluorescence Intensity (MFI) of pHrodo™ Red Dextran associated cells as normalized to MFI of pHrodo™ Red Dextran associated cells incubated at 4° C. To measure the efficiency of OVA peptide presentation on MHC-I, FLT3L-BMDCs were treated as described above and incubated with Endofit-OVA protein (0.5 mg/ml) for 1 hour at 37° C. […] The percentage of cells associated with the OVA peptide on MHC-I was calculated by flow cytometry. Data were acquired on a Symphony A3 flow cytometer (Becton-Dickenson) and analyzed with FlowJo software (Becton-Dickenson). […]"}, "[7]": {"details": "82.5 uM lipid + R848 vs R848 alone, 2 days"}},
  "data": [
    {"molecule": "CCCCCCCCCCCCCCCCCCCCCC(=O)OC[C@@H](O)COP(=O)([O-])OCC[N+](C)(C)C", "note": "[22:0 LYSO PC, 1-behenoyl-2-hydroxy-sn-glycero-3-phosphocholine]", "values": [
      {"measurement": "particle diameter", "setting": "[1]", "result": "approximately 1500 nm"},
      {"measurement": "reduction of cell viability", "setting": "[2]", "result": "approximately 25%"},
      {"measurement": "cytokine fold changes relative to R848 alone (in words)", "setting": "[3]; 41.3 uM lipid + R848", "result": "not as markedly increased"},
      {"measurement": "IL-1beta output (in words)", "setting": "[3]; 82.5 uM lipid + R848 1 μg/mL vs R848 alone, 2 days", "result": "increased the IL-1beta output"},
      {"measurement": "IFN-beta secretion (in words)", "setting": "[3]; [7]", "result": "increased"},
      {"measurement": "IFN-gamma secretion (in words)", "setting": "[3]; [7]", "result": "significantly increased"},
      {"measurement": "IL-8 secretion (in words)", "setting": "[3]; [7]", "result": "increased"},
      {"measurement": "IL-17a secretion (in words)", "setting": "[3]; [7]", "result": "increased"},
      {"measurement": "IL-23 secretion (in words)", "setting": "[3]; [7]", "result": "increased"},
      {"measurement": "IL-1β secretion", "setting": "[4]; Table 1-7, 10 donors", "result": 1.1, "unit": "pg/mL"},
      {"measurement": "IL-1β secretion", "setting": "[4]; Table 1-8", "result": 1.0, "unit": "pg/mL"},
      {"measurement": "IL-1beta secretion, effect of 0.45 um filtration (in words)", "setting": "[5]; filtered vs unfiltered lipid + R848", "result": "significantly decreased the IL-1beta secreted by moDC"},
      {"measurement": "IL-1beta secretion (in words)", "setting": "[5]; methanol or ethanol solvent evaporation with KP407, filtered, target 82.5 uM + R848", "result": "further increased"},
      {"measurement": "IL-1beta secretion (in words)", "setting": "[5]; mixed with KP407 (5% in PBS), 0.45 um filtered, target 82.5 uM + R848", "result": "increased IL-1beta secretion"},
      {"measurement": "IL-1beta secretion (in words)", "setting": "[5]; not incorporated into KP407 micelles, 0.45 um filtered, target 82.5 uM + R848", "result": "minimal amounts of IL-1beta"},
      {"measurement": "IL-1beta secretion (in words)", "setting": "[5]; surfactant formulations left unfiltered + R848", "result": "high IL-1beta secretion"},
      {"measurement": "OVA antigen processing and cross-presentation on MHC-I (in words)", "setting": "[6]; R848 + lipid", "result": "did not interfere with these functions"},
      {"measurement": "antigen uptake (Red pHrodo dextran) (in words)", "setting": "[6]; R848 with vs without lipid, 24 h", "result": "does not compromise the antigen uptake capacity of DCs"}
    ]}
  ]
}
